This is an account of results in BindingDB's records for doi:10.1016/j.bmcl.2021.127992 (Kyung Hee University, 2021).

pIC50: −log10 of the molar value.

This test addresses T1, Prostaglandin E synthase (Homo sapiens, UniProt O14684).
T1 sequence (O14684 whole entry): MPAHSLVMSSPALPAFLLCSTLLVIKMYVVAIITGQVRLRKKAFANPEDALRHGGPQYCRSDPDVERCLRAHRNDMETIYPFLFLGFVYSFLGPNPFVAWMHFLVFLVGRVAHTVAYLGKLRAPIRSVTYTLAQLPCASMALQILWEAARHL
The test can be described thus: Inhibition of mPGES-1 in human A549 cells assessed as reduction in IL-1beta stimulated […] production.

With `O=C(Oc1ccc(OCc2ccccc2)cc1)N(Cc1ccccc1)S(=O)(=O)c1ccc(Cl)cc1`, the pIC50 is 5.70. For `O=C(Nc1ccc(OCCCCc2ccccc2)cc1)N(Cc1ccccc1)S(=O)(=O)c1ccc(Cl)cc1`, the pIC50 was 6.00. For the compound `O=C(Oc1ccc(OCc2ccccc2)cc1)N(Nc1ccccc1)S(=O)(=O)c1ccc(Cl)cc1`, the negative-log IC50 (pIC50) was 6.60.
